Where a SMILES comes first, the peptide text is derived from it.
Columns and labels:
[1] = system: HUVEC; format: cell-based, human
Protocol: (§1) 2× 10^3 HUVEC and 4T1 cell-line were cultured in DMEM medium supplemented with 10% FBS at 37 °C with 5% CO2 in 96-well plate. After 24 h, The cells were incubated in the media supplemented with 2% FBS, different concentrations (0, 0.015, 0.03, 0.061 μM) of VGB3 in the presence of (0.03 μg.ml^-1) VEGF-A (Sigma, St. Louis, MO) for 24 and 48 respectively. Then, cell proliferation was quantified by 3-(4,5–dimethylthiazol-2-yl)-2 ,5-diphenyl tetrazolium bromide (MTT) (Sigma, St. Louis, MO) solution (5 mg/mL) in PBS (pH 7.4) was added to each well and the plates were incubated in the dark at 37 °C for 4 h. Then the insoluble purple formazan product was dissolved by dimethyl sulfoxide (DMSO). Absorbance was measured at 570 nm using an ELISA plate reader. The assay was performed in triplicate.

[2] = system: 4T1 mammary carcinoma cells; format: cell-based, murine
Protocol: as §1

[3] = biological target: VEGFR1D2; assay: Microscale thermophoresis (MST) binding of VGB3 to VEGFR1D2
Protocol: Previously, a tight association between VEGFR1 D2 and VEGF has also been reported (113pM).[4]
The binding affinity of peptide to its cognate receptor was measured by Microscale thermophoresis (MST) on a Nanotemper Monolith NT.115 instrument (Nanotemper Technologies GmbH). Purified VEGFR1D2 was freshly labeled with the Monolith His-Tag RED-tris-NTA labeling dye according to the supplied protocol (Nanotemper Technologies, GmbH). The labeled protein was concentrated using a PES centrifugation filter (3 kDa cutoff; VWR). Measurements were done in MST buffer (50 mM Tris, 250 mM NaCl, pH=7) in standard capillaries (K002; Nanotemper Technologies GmbH). The final concentrations of either labeled protein in the assay were 25 nM. The ligands (VGB3) was titrated in 1:1 dilutions following manufacturer’s recommendations and starting from 0.25 mM. All binding reactions were incubated for 10 min at room temperature followed by centrifugation at 20,000 g before loading into capillaries. All measurements were performed in triplicate using automatically assigned 20% LED and 60% MST power; Laser On-time was 30 sec and Laser Off time was 5 sec.

[4] = Body weight of tumor-bearing mice; format: in vivo, Female BALB/c mice; conditions: VGB3 0.02-0.5 mg/kg i.v., day 13 till 31; two-way ANOVA
Protocol: Female BALB/c mice (5–7 weeks) were purchased from the Laboratory Animal Center of the Iran Pasteur Institute and maintained under standardized environmental conditions: 12 h light-dark phases, with free access to food and water. For treatment with VGB3, Tumor cells (4T1; 1×10^6 cells/500 μl or 1×10^5 cells/50 μl) were injected subcutaneously into the right flanks of mice (n=3–5). To generate the metastatic model, 4T1 tumor models were sterilized, excised from the breast cancer-bearing BALB/c mice, cut into pieces of <0.3 cm3, and subcutaneously implanted into the animals' right flanks under ketamine (100 mg/kg, i.p.) and xylazine (10 mg/kg, i.p.) anesthesia. Animals carrying tumors of size ~100mm3 were randomized to 6 mice/group (n=6). The treatment groups received 0.02, 0.1, 0.2 or 0.5 mg/kg of VGB3 on alternate days and the control group received PBS i.v. into the mice for 19 days from day 13. The tumor volume was measured every 5 days by a digital Vernier caliper (Mitutoyo, Japan), using the following formula: v=a^2×b×0.52 (where a is the shortest and b is the longest diameter). All studies were performed under the guidelines and with the approval of the Institutional Animal Care and Use Committee (IACUC) of Tehran University of Medical Sciences.

[5] = system: HUVEC; assay: HUVEC Cytodex 3D bead sprouting assay; format: cell-based, human; conditions: HUVEC Cytodex beads in collagen gel; VGB3 0, 0.015, 0.03, 0.061 μM; VEGF (0.75 pM; method: 0.03 μg/ml VEGF-A); 24 h
Protocol: The fibrin or collagen sprouting angiogenesis assay was performed as previously described. Type I collagen was obtained as previously reported. HUVECs were allowed to attach to Cytodex microcarrier beads (Amersham Pharmacia Biotech, Sweden) by incubation in DMEM medium with 10% FBS for 4 h at 37 °C in 5% CO2 (60 μL of […] Cytodex beads were coated with 400 μl of HUVECs). EC-covered beads were embedded into the collagen gel under sodium bicarbonate conditions (Sigma, St. Louis, Missouri, USA), distributed in 96-well plates (100 μl/well), and placed in a 37 °C, 5% CO2 incubator for 30 min. Then DMEM supplemented with 2% FBS with a range of concentrations (0, 0.015, 0.03, 0.061 μM) of VGB3 in the presence of (0.03 μg.ml^-1) VEGF-A were added on top of the collagen gel. After 24 h, angiogenesis was monitored microscopically. All the capillary-like structures were photographed using an inverted microscope (Olympus BX-51, Japan) with a scale bar of 20 μm, and the number of sprouts grown on beads was quantified by ImageJ software. The assays were performed in triplicate.

[6] = system: HUVEC; assay: Wound healing assay (HUVEC migration); format: cell-based, human; conditions: compared with control; VGB3 0, 0.015, 0.03, 0.061 μM, 0.03 μg/ml VEGF-A, 2% FBS, 24 h
Protocol: 3 × 10^3 HUVECs were grown to confluence in 96-well plate. The monolayer was mechanically wounded using a sterile pipette tip followed by washing with PBS. The cells were incubated in the serum-starved DMEM medium containing 2% FBS and different concentrations (0, 0.015, 0.03, 0.061 μM) of VGB3 in the presence of (0.03 μg.ml^-1) VEGF-A for 24 h. Then HUVECs were washed with PBS two times and fixed using 4% paraformaldehyde at room temperature. After staining the cells with Giemsa, photographs were taken under a microscope (scale bar: 20 μm; Olympus BX-51, Japan) immediately and after 24 h incubation at the same location. Data are expressed as the average percentage wound closure for each group (n=6) of initial migrated cells at time 0 (T0), or as the percentage inhibition compared with a time-matched control. The wound area (the open area of the scratch) was quantified using ImageJ: (1 - (wound area at 24 h / wound area at 0 h))×100.

- IC50 ([2]; 48 h): 30 nM
- IC50 fold lower than that of VEGFR1D2 fragments ([2]; VGB3 IC50 30 nM in 4T1 vs ~180 nM for VEGFR1D2 fragments in HUVEC (ref 3)): 6 fold
- Kd ([3]; MST, Monolith NT.115, His-Tag RED-tris-NTA labelled VEGFR1D2 25 nM, VGB3 titrated in 1:1 dilutions from 0.25 mM, 50 mM Tris, 250 mM NaCl, pH=7, 10 min at room temperature, triplicate, read-out: dissociation constant (Kd)): 1960 ± 690 nM
- binding constant fold lower than Kd of VEGFA to entire extracellular portion of VEGFR1 ([3]; VGB3 Kd 1.96 μM vs VEGFA Kd ~50 nM): 40 fold
Structure (SMILES): CC(C)C[C@@H]1NC(=O)CNC(=O)[C@H](CC(=O)O)NC(=O)[C@H](CC(=O)O)NC(=O)[C@@H]2CCCN2C(=O)[C@@H]2CCCN2C(=O)[C@H](CCCNC(=N)N)NC(=O)[C@@H](NC(=O)[C@@H](N)CCC(=O)O)CSSC[C@@H](C(=O)O)NC1=O [VGB3] (HELM PEPTIDE1{E.C.R.P.P.D.D.G.L.C}$PEPTIDE1,PEPTIDE1,2:R3-10:R3$$$V2.0)
- IC50 ([1]; 48 h): 30 nM
- inhibition of endothelial cell proliferation compared with other reported VEGF-B based peptides ([1]; comparison with refs 2,4,5): more effectively inhibited endothelial cell proliferation
- inhibition of endothelial cell proliferation compared with clinically used drugs such as Bevacizumab ([1]; endothelial cell culture conditions, comparison with refs 2,4,5): more potent
- body weight differences vs PBS control [4]: no significant (NS) differences
- angiogenesis in vitro (sprouting) [5]: inhibits angiogenesis in vitro
- migration of wounded HUVEC monolayers [6]: inhibits migration of wounded HUVEC monolayers compared with the control

— PMC7272640, “Molecular docking, synthesis and biological evaluation of Vascular Endothelial Growth Factor (VEGF) B based peptide as antiangiogenic agent targeting the second domain of the Vascular Endothelial Growth Factor Receptor 1 (VEGFR1D2) for anticancer application” (Signal Transduction and Targeted Therapy, 2020)
